Measured values as given in US20050197350A1, “Novel quinoline, tetrahydroquinazoline, and pyrimidine derivatives and methods of treatment related to the use thereof” (TAISHO PHARMACEUTICAL CO., LTD., priority 2003, published 2005).

These compounds were tested on MCH receptors (assay: MCH receptor activity class (method not given)). Details: MCH receptor activity class 1-3 (percent of control at 10^-7 M or IC50).

SMILES | class
CN(C)c1cc(N[C@H]2CC[C@@H](NC(=S)Nc3ccc(Cl)cc3C(F)(F)F)CC2)nc2ccccc12 [compound 2294] | 3 (Class 3 The value of percent of control at 10^−7 M was more than 60% or the value of IC50 was more than 200 nM.)
Cc1cc(F)ccc1NC(=S)N[C@H]1CC[C@@H](Nc2cc(N(C)C)c3ccccc3n2)CC1 [compound 2295] | 3 (Class 3 The value of percent of control at 10^−7 M was more than 60% or the value of IC50 was more than 200 nM.)
COc1ccc(NC(=S)N[C@H]2CC[C@@H](Nc3cc(N(C)C)c4ccccc4n3)CC2)c(C)c1 [compound 2296] | 3 (Class 3 The value of percent of control at 10^−7 M was more than 60% or the value of IC50 was more than 200 nM.)
COc1cc(OC)c(NC(=S)N[C@H]2CC[C@@H](Nc3cc(N(C)C)c4ccccc4n3)CC2)cc1Cl [compound 2297, N-(5-chloro-2,4-dimethoxyphenyl)-N′-(cis-4-{[4-(dimethylamino)quinolin-2-yl]amino}cyclohexyl)thiourea] | 1 (Class 1: The value of percent of control at 10^−7 M was less than 40% or the value of IC50 was less than 50 nM.)
C[C@@H](NC(=S)N[C@H]1CC[C@@H](Nc2cc(N(C)C)c3ccccc3n2)CC1)c1ccccc1 [compound 2298] | 3 (Class 3 The value of percent of control at 10^−7 M was more than 60% or the value of IC50 was more than 200 nM.)
Cc1cccc(NC(=S)N[C@H]2CC[C@@H](Nc3cc(N(C)C)c4ccccc4n3)CC2)c1C [compound 2299] | 3 (Class 3 The value of percent of control at 10^−7 M was more than 60% or the value of IC50 was more than 200 nM.)
CN(C)c1cc(N[C@H]2CC[C@@H](NC(=S)Nc3c(F)cc(Br)cc3Br)CC2)nc2ccccc12 [compound 2300, N-(2,4-dibromo-6-fluorophenyl)-N′-(cis-4-{[4-(dimethylamino)quinolin-2-yl]amino}cyclohexyl)thiourea] | 2 (Class 2: The value of percent of control at 10^−7 M was from 40% to 60% or the value of IC′50 was from 50 nM to 200 nM.)
Cc1cc(Cl)cc(Cl)c1NC(=S)N[C@H]1CC[C@@H](Nc2cc(N(C)C)c3ccccc3n2)CC1 [compound 2301, N-(2,4-dichloro-6-methylphenyl)-N′-(cis-4-{[4-(dimethylamino)quinolin-2-yl]amino}cyclohexyl)thiourea] | 1 (Class 1: The value of percent of control at 10^−7 M was less than 40% or the value of IC50 was less than 50 nM.)
CCOc1ccccc1NC(=S)N[C@H]1CC[C@@H](Nc2cc(N(C)C)c3ccccc3n2)CC1 [compound 2302] | 3 (Class 3 The value of percent of control at 10^−7 M was more than 60% or the value of IC50 was more than 200 nM.)
Cc1cccc(C(C)C)c1NC(=S)N[C@H]1CC[C@@H](Nc2cc(N(C)C)c3ccccc3n2)CC1 [compound 2303] | 3 (Class 3 The value of percent of control at 10^−7 M was more than 60% or the value of IC50 was more than 200 nM.)
CN(C)c1cc(N[C@H]2CC[C@@H](NC(=S)Nc3ccc4c(c3)OCCO4)CC2)nc2ccccc12 [compound 2304] | 3 (Class 3 The value of percent of control at 10^−7 M was more than 60% or the value of IC50 was more than 200 nM.)
CN(C)c1cc(N[C@H]2CC[C@@H](NC(=S)Nc3ccc4c(c3)OCO4)CC2)nc2ccccc12 [compound 2305] | 3 (Class 3 The value of percent of control at 10^−7 M was more than 60% or the value of IC50 was more than 200 nM.)
Cc1c(Cl)cccc1NC(=S)N[C@H]1CC[C@@H](Nc2cc(N(C)C)c3ccccc3n2)CC1 [compound 2306] | 3 (Class 3 The value of percent of control at 10^−7 M was more than 60% or the value of IC50 was more than 200 nM.)
CN(C)c1cc(N[C@H]2CC[C@@H](NC(=S)Nc3ccc(Br)cc3OC(F)(F)F)CC2)nc2ccccc12 [compound 2307] | 3 (Class 3 The value of percent of control at 10^−7 M was more than 60% or the value of IC50 was more than 200 nM.)
COc1cc(NC(=S)N[C@H]2CC[C@@H](Nc3cc(N(C)C)c4ccccc4n3)CC2)c(OC)cc1Cl [compound 2308] | 3 (Class 3 The value of percent of control at 10^−7 M was more than 60% or the value of IC50 was more than 200 nM.)
Cc1onc(-c2ccccc2)c1NC(=S)N[C@H]1CC[C@@H](Nc2cc(N(C)C)c3ccccc3n2)CC1 [compound 2309] | 3 (Class 3 The value of percent of control at 10^−7 M was more than 60% or the value of IC50 was more than 200 nM.)
COC(=O)c1scc(C)c1NC(=S)N[C@H]1CC[C@@H](Nc2cc(N(C)C)c3ccccc3n2)CC1 [compound 2311] | 2 (Class 2: The value of percent of control at 10^−7 M was from 40% to 60% or the value of IC′50 was from 50 nM to 200 nM.)
COC(=O)c1sccc1NC(=S)N[C@H]1CC[C@@H](Nc2cc(N(C)C)c3ccccc3n2)CC1 [compound 2312] | 3 (Class 3 The value of percent of control at 10^−7 M was more than 60% or the value of IC50 was more than 200 nM.)
CCCCc1ccc(NC(=S)N[C@H]2CC[C@@H](Nc3cc(N(C)C)c4ccccc4n3)CC2)c(C)c1 [compound 2313] | 3 (Class 3 The value of percent of control at 10^−7 M was more than 60% or the value of IC50 was more than 200 nM.)
COc1cc([N+](=O)[O-])ccc1NC(=S)N[C@H]1CC[C@@H](Nc2nccc(N(C)C)n2)CC1 [compound 2314] | 3 (Class 3 The value of percent of control at 10^−7 M was more than 60% or the value of IC50 was more than 200 nM.)

SMILES | class
COc1ccc(C)cc1NC(=S)N[C@H]1CC[C@@H](Nc2nccc(N(C)C)n2)CC1 [compound 2315] | 3 (Class 3 The value of percent of control at 10^−7 M was more than 60% or the value of IC50 was more than 200 nM.)
CN(C)c1ccnc(N[C@H]2CC[C@@H](NC(=S)Nc3ccc(Br)cc3Cl)CC2)n1 [compound 2316] | 3 (Class 3 The value of percent of control at 10^−7 M was more than 60% or the value of IC50 was more than 200 nM.)
CN(C)c1ccnc(N[C@H]2CC[C@@H](NC(=S)Nc3ccc(I)cc3)CC2)n1 [compound 2317] | 3 (Class 3 The value of percent of control at 10^−7 M was more than 60% or the value of IC50 was more than 200 nM.)
CN(C)c1ccnc(N[C@H]2CC[C@@H](NC(=S)Nc3c(Cl)cc(Cl)cc3Cl)CC2)n1 [compound 2319] | 3 (Class 3 The value of percent of control at 10^−7 M was more than 60% or the value of IC50 was more than 200 nM.)
Cc1cc(C)c(NC(=S)N[C@H]2CC[C@@H](Nc3nccc(N(C)C)n3)CC2)c(C)c1 [compound 2320, N-(cis-4-{[4-(dimethylamino)pyrimidin-2-yl]amino}cyclohexyl)-N′-mesitylthiourea] | 1 (Class 1: The value of percent of control at 10^−7 M was less than 40% or the value of IC50 was less than 50 nM.)
Cc1ccc(NC(=S)N[C@H]2CC[C@@H](Nc3nccc(N(C)C)n3)CC2)c(C)c1 [compound 2321] | 3 (Class 3 The value of percent of control at 10^−7 M was more than 60% or the value of IC50 was more than 200 nM.)
CCc1cccc(CC)c1NC(=S)N[C@H]1CC[C@@H](Nc2nccc(N(C)C)n2)CC1 [compound 2322] | 3 (Class 3 The value of percent of control at 10^−7 M was more than 60% or the value of IC50 was more than 200 nM.)
Cc1ccc(NC(=S)N[C@H]2CC[C@@H](Nc3nccc(N(C)C)n3)CC2)c(Br)c1 [compound 2323] | 3 (Class 3 The value of percent of control at 10^−7 M was more than 60% or the value of IC50 was more than 200 nM.)
CN(C)c1ccnc(N[C@H]2CC[C@@H](NC(=S)NCc3ccccc3Cl)CC2)n1 [compound 2324] | 3 (Class 3 The value of percent of control at 10^−7 M was more than 60% or the value of IC50 was more than 200 nM.)
CCc1cccc(C)c1NC(=S)N[C@H]1CC[C@@H](Nc2nccc(N(C)C)n2)CC1 [compound 2325] | 3 (Class 3 The value of percent of control at 10^−7 M was more than 60% or the value of IC50 was more than 200 nM.)
CC(C)c1ccccc1NC(=S)N[C@H]1CC[C@@H](Nc2nccc(N(C)C)n2)CC1 [compound 2326] | 3 (Class 3 The value of percent of control at 10^−7 M was more than 60% or the value of IC50 was more than 200 nM.)
COC(=O)c1cccc(NC(=S)N[C@H]2CC[C@@H](Nc3nccc(N(C)C)n3)CC2)c1 [compound 2327] | 3 (Class 3 The value of percent of control at 10^−7 M was more than 60% or the value of IC50 was more than 200 nM.)
Cc1cc(Br)cc(C)c1NC(=S)N[C@H]1CC[C@@H](Nc2nccc(N(C)C)n2)CC1 [compound 2328, N-(4-bromo-2,6-dimethylphenyl)-N′-(cis-4-{[4-(dimethylamino)pyrimidin-2-yl]amino}cyclohexyl)thiourea] | 1 (Class 1: The value of percent of control at 10^−7 M was less than 40% or the value of IC50 was less than 50 nM.)
Cc1cc(Br)ccc1NC(=S)N[C@H]1CC[C@@H](Nc2nccc(N(C)C)n2)CC1 [compound 2329] | 3 (Class 3 The value of percent of control at 10^−7 M was more than 60% or the value of IC50 was more than 200 nM.)
CN(C)c1ccnc(N[C@H]2CC[C@@H](NC(=S)Nc3ccc(Br)cc3C(F)(F)F)CC2)n1 [compound 2330] | 3 (Class 3 The value of percent of control at 10^−7 M was more than 60% or the value of IC50 was more than 200 nM.)
Cc1cc(Cl)ccc1NC(=S)N[C@H]1CC[C@@H](Nc2nccc(N(C)C)n2)CC1 [compound 2331] | 3 (Class 3 The value of percent of control at 10^−7 M was more than 60% or the value of IC50 was more than 200 nM.)
CN(C)c1ccnc(N[C@H]2CC[C@@H](NC(=S)NCc3cccc4ccccc34)CC2)n1 [compound 2332] | 3 (Class 3 The value of percent of control at 10^−7 M was more than 60% or the value of IC50 was more than 200 nM.)
COc1cccc(CNC(=S)N[C@H]2CC[C@@H](Nc3nccc(N(C)C)n3)CC2)c1OC [compound 2333] | 3 (Class 3 The value of percent of control at 10^−7 M was more than 60% or the value of IC50 was more than 200 nM.)
Cc1cc(C)c(NC(=S)N[C@H]2CC[C@@H](Nc3nccc(N(C)C)n3)CC2)cc1C [compound 2334] | 3 (Class 3 The value of percent of control at 10^−7 M was more than 60% or the value of IC50 was more than 200 nM.)
CN(C)c1ccnc(N[C@H]2CC[C@@H](NC(=S)Nc3ccccc3-c3ccccc3)CC2)n1 [compound 2335] | 3 (Class 3 The value of percent of control at 10^−7 M was more than 60% or the value of IC50 was more than 200 nM.)
